Measured values taken from patent US6730691B1, “Uses of alpha adrenergic blocking agents” (priority 2000, dated 2004).
Where a name gives a salt, the structure may show the parent alone.

What was measured:
[1] = test system: patients who had undergone radial keratotomy and who each experienced glare and halos; assay: Topical thymoxamine ophthalmic solution in patients after radial keratotomy; assay type: in vivo, human; conditions: two radial keratotomy patients; similarly treated with 0.5% by weight solution
[2] = test system: subjects who had undergone surgical implantation of a refractive intraocular lens, experiencing photophobia, glare, secondary images and haloing; assay: Topical thymoxamine ophthalmic solution in subjects after implantation of a refractive intraocular lens; assay type: in vivo, human; conditions: three subjects
Experimental: A suitable ophthalmic solution was prepared containing about 0.5% by weight thymoxamine by the Moorfields Eye Hospital, London, England having the following composition: Applicant believes that the aqueous ophthalmic solution was prepared by dissolving the sodium acetate, boric acid and phenylmercuric nitrate in most of the purified water. Dissolution was promoted by heating the solution. Upon cooling the solution to room temperature, the thymoxamine hydrochloride was added and was dissolved without further heating. The remainder of the purified water was then added to reach a final volume of 100 ml. Sterilization of the solution was achieved by filtering it through a sterilizing filter. Three subjects, each of whom had undergone surgical implantation of a refractive intraocular lens, were selected for study. Each of the three subjects complained of experiencing photophobia, glare, secondary images and haloing, especially at night. Each of the three subjects received an approximately one drop dose twice daily of an ophthalmic solution containing 0.5% by weight of thymoxamine. […] Each of the subjects continued application of approximately a one drop dose on an as needed basis for a period of one month.

Compound: CC(=O)Oc1cc(C(C)C)c(OCCN(C)C)cc1C [thymoxamine, thymoxamine hydrochloride]
- glare and halos after treatment [1]: comparable results
- induced myopia or headaches ([2]; 0.5% by weight solution, one day period): without experiencing induced myopia or headaches
- irritation from the topical application to the eye ([2]; after administration of a dosage of 0.5% by weight solution): mild irritation
- undesirable visual anomalies once treatment was terminated ([2]; after termination of treatment): returned to each of the three subjects
- undesirable visual anomaly during the usage period ([2]; approximately one drop as needed for one month): None of the subjects have experienced the previously complained of undesirable visual anomaly
- previously complained of undesirable visual anomaly (photophobia, glare, secondary images, haloing) ([2]; approximately one drop twice daily of 0.5% by weight solution, one day period): elimination of the previously complained of undesirable visual anomaly
